For 35 compounds, IC50 results are on record in patent publication US9790169B2, “IDO inhibitors” (BRISTOL-MYERS SQUIBB COMPANY, priority 2015, dated 2017).

Structures are written as SMILES. pIC50: −log10 of the molar value.

What is called pIC50 is −log10 of the IC50, conventionally taken in molar units.

In this test the target is human IDO1 (Homo sapiens, UniProt P14902). The experiment in a line: Assessment of human IDO-1 inhibitory activity in HEK cells (human IDO1/HEK293 cells, kynurenine read-out with Ehrlich reagent, absorbance 490 nm). It is filed as cell-based. Set-up: expressed in transfected cells. Particulars: HEK Human IDO-1 cellular assay. How it is done: Exemplary compounds were tested for inhibition of IDO activity.
human IDO1, sequence (P14902 whole entry): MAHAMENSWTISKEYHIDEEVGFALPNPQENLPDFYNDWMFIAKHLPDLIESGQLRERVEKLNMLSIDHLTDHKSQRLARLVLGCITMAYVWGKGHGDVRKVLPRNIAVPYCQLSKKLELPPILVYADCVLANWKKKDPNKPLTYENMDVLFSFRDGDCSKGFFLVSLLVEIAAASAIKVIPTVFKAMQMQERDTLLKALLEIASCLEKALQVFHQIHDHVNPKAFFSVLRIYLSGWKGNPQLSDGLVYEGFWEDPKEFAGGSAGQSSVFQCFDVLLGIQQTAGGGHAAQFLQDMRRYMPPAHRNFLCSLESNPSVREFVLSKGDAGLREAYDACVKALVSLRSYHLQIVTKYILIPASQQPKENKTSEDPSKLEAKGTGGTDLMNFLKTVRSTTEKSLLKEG
Assessment of Human IDO-1 Inhibitory Activity in HEK Cells
HEK293 cells were transfected with a pCDNA-based mammalian expression vector harboring human IDO1 cDNA (NM 002164.2) by electroporation. They were cultured in medium (DMEM with 10% FBS) containing 1 mg/ml G418 for two weeks. Clones of HEK293 cells that stably expressed human IDO1 protein were selected and expanded for IDO inhibition assay.
The human IDO1/HEK293 cells were seeded at 10,000 cells per 50 μL per well with RPMI/phenol red free media contains 10% FBS in a 384-well black wall clear bottom tissue culture plate (Matrix Technologies LLC) 100 nL of certain concentration of compound was then added to each well using ECHO liquid handling systems. The cells were incubated for 20 hours in 37° C. incubator with 5% CO2.
The compound treatments were stopped by adding trichloroacetic acid (Sigma-Aldrich) to a final concentration at 0.2%. The cell plate was further incubated at 50° C. for 30 minute. The equal volume supernatant (20 μL) and 0.2% (w/v) Ehrlich reagent (4-dimethylaminobenzaldehyde, Sigma-Aldrich) in glacial acetic acid were mixed in a new clear bottom 384-well plate. This plate was then incubated at room temperature for 30 minute. The absorbance at 490 nm was measured on Envision plate reader.
Compound IC50 values were calculated using the counts of 500 nM of a reference standard treatment as one hundred percent inhibition, and counts of no compound but DMSO treatment as zero percent inhibition.
For the compound `C[C@@H]1CN(c2ccc(C(C)(C)CC(=O)O)cc2Nc2ccc(F)cc2)C[C@H](C)O1` [Example 732, 3-(4-((2S,6R)-2,6-dimethylmorpholino)-3-((4-fluorophenyl)amino)phenyl)-3-methylbutanoic acid], the pIC50 is above 7.30. In the case of `CC(C)CN(CC(C)C)c1c(F)cc(C(CC(=O)O)c2ccccc2)cc1Nc1ccc(Cl)cc1` (single isomer, unassigned) [Example 129, 3-(3-((4-Chlorophenyl)amino)-4-(diisobutylamino)-5-fluorophenyl)-3-phenylpropanoic acid], the pIC50 is above 7.30. On to `CCOc1ccc(NC(=O)Nc2cc(C(CC)CC(=O)O)c(F)cc2N(CC(C)C)CC(C)C)c(F)c1` (single isomer, unassigned) [Example 1138, 3-(4-(Diisobutylamino)-5-(3-(4-ethoxy-2-fluorophenyl)ureido)-2-fluorophenyl)pentanoic acid], for which the pIC50 is above 8.30. The result for `CCC(CC(=O)O)c1ccc(N(CC(C)C)C2CCCCC2)c(Nc2ccc(Cl)c(OC(F)F)c2)c1` (single isomer, unassigned) [Example 649] reads above 7.30; that for `COCC(CC(=O)O)c1ccc(N(CC(C)C)C2CCOCC2)c(NC(=O)Nc2cc(C)on2)c1` (single isomer, unassigned) [Example 1213, 3-(4-(Isobutyl(tetrahydro-2H-pyran-4-yl)amino)-3-(3-(5-methylisoxazol-3-yl)ureido)phenyl)-4-methoxybutanoic acid], below 7.30. The result for `CC[C@@H](CC(=O)O)c1ccc(N2CCOC[C@@H]2C(C)C)c(NC(=O)Nc2ccc(C)cc2)c1` (single isomer, unassigned) [Example 74] reads below 7.30; that for `COCC(CC(=O)O)c1cc(F)c(N(CC(C)C)C2CCCCC2)c(NC(=O)Nc2ccc(OC(F)(F)F)cc2)c1` (single isomer, unassigned) [Example 1163, 3-(4-(cyclohexyl(isobutyl)amino)-3-fluoro-5-(3-(4-(trifluoromethoxy)phenyl)ureido)phenyl)-4-methoxybutanoic acid], above 8.30; that for `CCC(CC(=O)O)c1ccc(N2CCC[C@H]2C(C)(C)F)c(NC(=O)Nc2ccc(Cl)cc2F)c1` (single isomer, unassigned) [Example 786], below 7.30. Regarding `CCOc1ccc(NC(=O)Nc2cc(C(COC)CC(=O)O)ccc2N(CC(C)C)C2CCCCC2)c(F)c1` (single isomer, unassigned) [Example 1236, 3-(4-(Cyclohexyl(isobutyl)amino)-3-(3-(4-ethoxy-2-fluorophenyl)ureido)phenyl)-4-methoxybutanoic acid], the pIC50 is above 8.30. As to `CCOc1ncc(Nc2cc([C@@H](CC)CC(=O)O)ccc2N2CCOC[C@@H]2C(C)C)cn1` (single isomer, unassigned) [Example 79], the pIC50 is below 7.30.

Regarding `CCOc1ccc(CC(=O)Nc2cc(C(COC)CC(=O)O)cc(F)c2N(CC(C)C)CC(C)C)cc1` (single isomer, unassigned) [Example 1181, 3-(4-(Diisobutylamino)-3-(2-(4-ethoxyphenyl)acetamido)-5-fluorophenyl)-4-methoxybutanoic acid], the pIC50 was above 7.30. The value for `CC[C@@H](CC(=O)O)c1ccc(N(CC)C2CCOCC2)c(Nc2ccc3nc(C)sc3c2)c1` (single isomer, unassigned) [Example 484] was above 8.30. The result for `CC[C@H](CC(=O)O)c1ccc(N(CC)C2CCOCC2)c(Nc2ccn3nccc3n2)c1` (single isomer, unassigned) [Example 511] reads below 7.30; that for `CCC(CC(=O)O)c1cc(NC(=O)Nc2ccc(C)cc2)c(N(CC(C)C)CC(C)C)cc1F` (racemic) [Example 1128, (±)-3-(4-(Diisobutylamino)-2-fluoro-5-(3-(p-tolyl)ureido)phenyl)pentanoic acid], above 8.30. The result for `CCC(CC(=O)O)c1ccc(N2CCC[C@H]2C(C)(C)O)c(Nc2cnc(OC)nc2)c1` (single isomer, unassigned) [Example 824] reads below 7.30; that for `CCC(CC(=O)O)c1ccc(N2CCC[C@H]2C(C)(C)O)c(NC(=O)Nc2ccc(Cl)cc2F)c1` (single isomer, unassigned) [Example 812], below 7.30.

As for `COCC(CC(=O)O)c1ccc(N(CC(C)C)CC(C)C)c(NC(=O)Nc2ccc(Cl)cc2F)c1` (single isomer, unassigned) [995-1], the pIC50 was above 8.30. For `CCOc1ncc(Nc2cc([C@@H](CC)CC(=O)NS(C)(=O)=O)ccc2N(CC)C2CCOCC2)cn1` (stereo in doubt) [Example 1076, 3-(3-((2-Ethoxypyrimidin-5-yl)amino)-4-(ethyl(tetrahydro-2H-pyran-4-yl)amino)phenyl)-N-(methylsulfonyl)pentanamide], the pIC50 is above 7.30. As for `CCC(CC(=O)O)c1ccc(N(CC)C2CCCOC2)c(NC(=O)Nc2ccc(C)cc2)c1` (single isomer, unassigned) [Example 73 D3, 3-(4-(Ethyl(tetrahydro-2H-pyran-3-yl)amino)-3-(3-(p-tolyl)ureido)phenyl)pentanoic acid], the pIC50 is above 7.30. Consider `CCc1ccc(Nc2cc(C(C)(C)CC(=O)O)ccc2N2C[C@@H](C)O[C@@H](C)C2)cc1` [Example 734, 3-(4-((2S,6R)-2,6-dimethylmorpholino)-3-((4-ethylphenyl)amino)phenyl)-3-methylbutanoic acid], for which the pIC50 is below 7.30. The result for `COc1ncc(Nc2cc(C(C)CC(=O)O)ccc2N2C[C@@H](C)O[C@@H](C)C2)cn1` (single isomer, unassigned) [Example 741] reads below 7.30; that for `CCN(c1ccc(C(C)(C)CC(=O)O)cc1Nc1ccc(Cl)cc1)C1CCC(C)(O)CC1` (centres unmarked) [Example 1, 3-(3-((4-Chlorophenyl)amino)-4-(ethyl(4-hydroxy-4-methylcyclohexyl)amino)phenyl)-3-methylbutanoic acid], above 8.30; that for `CCOc1ccc(Nc2cc(C(CC)CC(=O)O)ccc2N2CCOC[C@H]2C(C)C)cc1` (single isomer, unassigned) [Example 894], above 7.30. The result for `CCCN(c1ccc(C(CC)CC(=O)O)cc1Nc1ncc(CC)cn1)C1CCOCC1` (racemic) [Example 611, 3-(3-((5-Ethylpyrimidin-2-yl)amino)-4-(propyl(tetrahydro-2H-pyran-4-yl)amino)phenyl)pentanoic acid] reads above 7.30; that for `CC(CC(=O)O)c1ccc(N2CCC[C@H]2C(C)(C)O)c(Nc2ccc(Cl)cc2)c1` (single isomer, unassigned) [Example 799], below 7.30; that for `CC[C@@H](CC(=O)O)c1ccc(N(CC(C)C)C2CCS(=O)(=O)CC2)c(NC(=O)Nc2ccc(C)cc2)c1` (single isomer, unassigned) [Example 210], below 7.30. The value for `CCC(CC(=O)O)c1ccc(N2CCC[C@@H]2COC)c(NC(=O)Cc2ccc(C)cc2)c1` (single isomer, unassigned) [Example 1144] was below 7.30; that for `CCOc1ccc(NC(=O)Nc2cc(C(CC)CC(=O)O)c(F)cc2N(CC(C)C)C2CCCCC2)cc1` (racemic) [Example 952, (+/−)-3-(4-(Cyclohexyl(isobutyl)amino)-5-(3-(4-ethoxyphenyl)ureido)-2-fluorophenyl)pentanoic acid] was above 8.30; that for `CCOc1ncc(Nc2cc([C@@H](CC)CC(=O)O)ccc2N(CC(C)(C)O)C2CCOCC2)cn1` (single isomer, unassigned) [Example 197] was below 7.30. For the compound `CC[C@@H](CC(=O)O)c1ccc(N(CC(C)(C)O)C2CCCCC2)c(Nc2ccc(C#N)cc2)c1` (single isomer, unassigned) [Example 227], the pIC50 was above 8.30. The result for `CCN(c1ccc(C(CC(=O)O)c2ccccc2)cc1NC(=O)Nc1ccc(Cl)cc1F)C1CCOCC1` (single isomer, unassigned) [Example 595, 3-(3-(3-(4-chloro-2-fluorophenyl)ureido)-4-(ethyl(tetrahydro-2H-pyran-4-yl)amino)phenyl)-3-phenylpropanoic acid] reads below 7.30; that for `CCC(CC(=O)O)c1ccc(N(CC2CC2)C(C)C)c(Nc2ccc3nc(C)sc3c2)c1` (single isomer, unassigned) [Example 716, 3-(4-((Cyclopropylmethyl)(isopropyl)amino)-3-((2-methylbenzo[d]thiazol-6-yl)amino)phenyl)pentanoic acid], below 7.30; that for `CC[C@H](CC(=O)O)c1ccc(N(CC)C2CCOCC2)c(NC(=O)Nc2cc(C)on2)c1` (single isomer, unassigned) [Example 534], below 7.30. As to `COCC(CC(=O)O)c1cc(F)c(N(CC(C)C)C2CCCCC2)c(NC(=O)Nc2ccc(OC)cc2F)c1` (single isomer, unassigned) [Example 1152, 3-(4-(Cyclohexyl(isobutyl)amino)-3-fluoro-5-(3-(2-fluoro-4-methoxyphenyl)ureido)phenyl)-4-methoxybutanoic acid], the pIC50 was above 8.30.

`COCC(CC(=O)O)c1ccc(N(CC(C)C)C2CCCCC2)c(NC(=O)Nc2ccccc2F)c1` (racemic) [Example 983, (+/−)-3-(4-(Cyclohexyl(isobutyl)amino)-3-(3-(2-fluorophenyl)ureido)phenyl)-4-methoxybutanoic acid]: the pIC50 is above 8.30.
